Laboratory results as given in patent US20230212164A1, “ANNULATED 2-AMINO-3-CYANO THIOPHENES AND DERIVATIVES FOR THE TREATMENT OF CANCER” (BOEHRINGER INGELHEIM INTERNATIONAL GMBH, priority 2020, published 2023).

Columns and labels:
[1] = molecular target: KRASG12-dependent Ba/F3 cells (Homo sapiens, UniProt P01116, G12C, cells depend on it); experiment: Ba/F3 cell model proliferation assay (AlamarBlue, 72 h); type: cell-based; details: Ba/F3 cells transduced with KRASG12C, read-out: IC50 Ba/F3 KRASG12C
Protocol: Ba/F3 Cell Model Generation and Proliferation Assay
Plasmids containing KRASG12 mutants were obtained from GeneScript. To generate KRASG12-dependent Ba/F3 models, Ba/F3 cells were transduced with retroviruses containing vectors that harbor KRASG12 isoforms. Platinum-E cells (Cell Biolabs) were used for retrovirus packaging. Retrovirus was added to Ba/F3 cells. To ensure infection, 4 μg/mL polybrene was added and cells were spinfected. […] Cells with an infection efficiency of 10% to 20% were further cultivated and puromycin selection with 1 μg/mL was initiated. As a control, parental Ba/F3 cells were used to show selection status. Selection was considered successful when parental Ba/F3 cells cultures died. To evaluate the transforming potential of KRASG12 mutations, the growth medium was no longer supplemented with IL-3. Ba/F3 cells harboring the empty vector were used as a control. Approximately ten days before conducting the experiments, puromycin was left out.
All treatments were performed in technical duplicates. The assay is run using a fully automated robotic system. Treated cells were incubated for 72 h at 37° C. with 5% CO2.
AlamarBlue™ (ThermoFisher), a viability stain, was added and fluorescence measured in the PerkinElmer Envision HTS Multilabel Reader.

[2] = molecular target: T1, protein-protein interaction between SOS1 and KRAS G12C (Homo sapiens, UniProt P01116, C118S/C51S/C80L/G12C); experiment: KRAS::SOS1 AlphaScreen binding assay
T1 construct: His6 (N)
Protocol: KRAS::SOS1 AlphaScreen Binding Assay
Assay buffer: • 1×PBS • 0.1% BSA • 0.05% Tween 20
AlphaLISA Glutathione Acceptor Beads and AlphaScreen Streptavidin Donor Beads are mixed in assay buffer at a concentration of 10 μg/mL (final assay concentration) each prior to use and kept at room temperature.
Compounds are diluted to a final start concentration of 100 μM and are tested in duplicate. […] For compound a start concentration of 100 μM, 150 nL of compound solution is transferred per well in 11 concentrations in duplicate with serial 1:5 dilutions.
The assay is run using a fully automated robotic system in a darkened room below 100 Lux. 10 μL of KRAS::SOS1 GDP mix is added into columns 1-24 to the 150 nL of compound solution (final dilution in the assay 1:100, final DMSO concentration 1%).
After 30 minutes incubation time 5 μL of bead mix is added into columns 1-23. Plates are kept at room temperature in a darkened incubator. After further 60 minutes incubation, the signal is measured using a PerkinElmer Envision HTS Multilabel Reader using the AlphaScreen specifications from PerkinElmer. Each plate contains the following controls: • diluted DMSO+KRAS::SOS1 GDP mix+bead mix • diluted DMSO+KRAS::SOS1 GDP mix
IC50 values are calculated and analyzed using a 4 parametric logistic model.

[3] = test system: pERK (Thr202/Tyr204) in NCI-H358 (KRAS G12C mutation); experiment: ERK phosphorylation assay 1 (AlphaLISA SureFire Ultra p-ERK1/2); details: Homo sapiens, NCI-H358, read-out: IC50 H358 pERK
Protocol: ERK Phosphorylation Assay
Materials Used for the Assay:
AlphaLISA SureFire Ultra p-ERK1/2 (Thr202/Tyr204) Assay Kit (ALSU-PERK-A500)
The cells are incubated for 1 h at room temperature and then incubated overnight in an incubator at 37° C. and 5% CO2 in a humidified atmosphere. 60 nL compound solution (10 mM DMSO stock solution) is then added using a Labcyte Echo 550 device. […] After 20 minutes of incubation at room temperature with shaking, 6 μL of each lysate sample is transferred to a 384-well Proxiplate and analyzed for pERK (Thr202/Tyr204) with the AlphaLISA SureFire Ultra pERK1/2 (Thr202/Tyr204) Assay Kit. 3 μL Acceptor Mix and 3 μL Donor Mix are added under subdued light and incubated for 2 h at room temperature in the dark, before the signal is measured on a PerkinElmer Envision HTS Multilabel Reader. The raw data were imported into and analyzed with the Boehringer Ingelheim proprietary software MegaLab (curve fitting based on the program PRISM, GraphPad Inc.).

T1 sequence (P01116 1-169 isoform P01116-2 G12C/C51S/C80L/C118S): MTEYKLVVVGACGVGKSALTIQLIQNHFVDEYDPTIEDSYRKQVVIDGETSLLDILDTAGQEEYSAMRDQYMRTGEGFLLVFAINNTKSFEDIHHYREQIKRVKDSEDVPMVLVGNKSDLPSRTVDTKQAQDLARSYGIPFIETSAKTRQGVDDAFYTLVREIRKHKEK
Chain of KRASG12-dependent Ba/F3 cells (P01116 whole entry G12C): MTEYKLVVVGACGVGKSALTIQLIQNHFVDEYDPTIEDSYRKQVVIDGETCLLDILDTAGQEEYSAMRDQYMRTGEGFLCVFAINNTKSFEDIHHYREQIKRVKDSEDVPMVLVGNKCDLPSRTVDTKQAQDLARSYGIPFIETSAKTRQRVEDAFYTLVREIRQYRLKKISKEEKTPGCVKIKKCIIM

Row | SMILES | GI50 [1] | IC50 ([2]; Table 36) | IC50 [3] | IC50 ([2]; Table 35)
1 | C=CC(=O)N(C)CCOc1cc(-c2noc([C@@]3(C)CCCc4sc(N)c(C#N)c43)n2)nc(N2CCCN(C)C[C@@H]2C)n1 [Ia-74] | 254 nM | 61 nM |  | 
2 | C=CC(=O)N1CCCN(c2cc(-c3noc([C@@]4(C)CCCc5sc(N)c(C#N)c54)n3)nc(O[C@@H](C)[C@@H]3CCCN3C)n2)CC1 [Ia-52] | 18.4 nM | 1.8 nM |  | 
3 | C=CC(=O)N1CCC(Oc2cc(-c3noc(C4(C)CCCc5sc(N)c(C#N)c54)n3)nc(N3CCN(C)CC3)c2)CC1 (stereo not shown) [Ia-88] | 381 nM | 71 nM |  | 
4 | C=CC(=O)N1CCN(c2cc(-c3noc([C@@]4(C)CCCc5sc(N)c(C#N)c54)n3)nc(OC[C@@H]3CCCN3C)n2)CC1 [Ia-47] | 186 nM | 3 nM |  | 
5 | C=CC(=O)N1CCN(c2cc(-c3noc([C@@]4(C)CCCc5sc(N)c(C#N)c54)n3)nc(N3CCCN(CC4(C)COC4)C[C@@H]3C)n2)CC1 [Ia-41] | 10.2 nM | 1.8 nM |  | 
6 | C=CC(=O)N1CCC2(C1)CN(c1cc(-c3noc([C@@]4(C)CCCc5sc(N)c(C#N)c54)n3)cc(N3CCCN(C)C[C@@H]3C)n1)C2 [Ia-95] | 946 nM | 46 nM |  | 
7 | C=CC(=O)N1CC2CN(c3cc(-c4noc([C@@]5(C)CCCc6sc(N)c(C#N)c65)n4)nc(N4CCCN(C)C[C@@H]4C)n3)CC2C1 (stereo partly shown) [Ia-97] | 967 nM | 43 nM |  | 
8 | C=CC(=O)N1CC2(CCN(c3cc(-c4noc([C@@]5(C)CCCc6sc(N)c(C#N)c65)n4)nc(N4CCCN(C)C[C@@H]4C)n3)C2)C1 [Ia-94] | 2290 nM | 77 nM |  | 
9 | C=CC(=O)N1CCN(c2cc(-c3noc(C4(C)CCC(C)c5sc(N)c(C#N)c54)n3)nc(N3CCN(CC4CC4)CC3)c2)CC1 (stereo not shown) [Ia-106] |  | 180 nM | 25.2 nM | 
10 | C=CC(=O)N1CCN(C2CN(c3cc(-c4noc([C@@]5(C)CCCc6sc(N)c(C#N)c65)n4)nc(N4CCCN(C)C[C@@H]4C)n3)C2)CC1 [Ia-100] | 2200 nM | 84 nM |  | 
11 | C=CC(=O)N1CCC(c2cc(-c3noc(C4(C)CCCc5sc(N)c(C#N)c54)n3)nc(N3CCN(C)CC3)c2)CC1 (stereo not shown) [Ia-1] |  |  | 31.4 nM | 123 nM
12 | C=CC(=O)N1CCN(c2cc(-c3noc([C@@]4(C)CCCc5sc(N)c(C#N)c54)n3)nc(N3CCCN([C@@H]4CCOC4)C[C@@H]3C)n2)CC1 [Ia-43] | 2.7 nM | 1.7 nM |  | 
13 | C=CC(=O)N1CCC(Oc2cc(-c3noc(C4(C)CCCc5sc(N)c(C#N)c54)n3)nc(N3CCN(C)CC3)c2)CC1 (stereo not shown) [Ia-141] |  | 71 nM | 39.6 nM | 
14 | C=CC(=O)N1CCN(c2cc(-c3noc([C@@]4(C)CCCc5sc(N)c(C#N)c54)n3)nc(N3CCCN(CCCOC)C[C@@H]3C)n2)CC1 [Ia-42] |  | 1.8 nM | 2.8 nM | 
15 | C=CC(=O)N1CCN(c2cc(-c3noc(C4(C)CC(F)(F)Cc5sc(N)c(C#N)c54)n3)nc(N3CCN(C)CC3)c2)CC1 (stereo not shown) [Ia-113] |  | 730 nM | 376 nM | 
16 | C=CC(=O)N1CCN(c2cc(-c3noc(C4(C)CCCc5sc(N)c(C#N)c54)n3)nc(N3C4CCC3CN(C)C4)c2)CC1 (stereo not shown) [Ia-16] |  | 106 nM | 24.6 nM | 
17 | C=CC(=O)N1CC(N2CCN(c3cc(-c4noc([C@@]5(C)CCCc6sc(N)c(C#N)c65)n4)nc(N4CCCN(CCCOC)C[C@@H]4C)n3)CC2)C1 [Ia-99] | 1040 nM | 45 nM |  | 
18 | C=CC(=O)N1CCC2(CC1)CN(c1cc(-c3noc([C@@]4(C)CCCc5sc(N)c(C#N)c54)n3)nc(N3CCCN(CCCOC)C[C@@H]3C)n1)C2 [Ia-92] | 178 nM | 16 nM |  | 
19 | C=CC(=O)N1CCC2(CCN(c3cc(-c4noc([C@@]5(C)CCCc6sc(N)c(C#N)c65)n4)nc(N4CCCN(CCCOC)C[C@@H]4C)n3)CC2)C1 [Ia-98] | 662 nM | 59 nM |  | 
20 | C=CC(=O)N1C[C@@H]2CN(c3cc(-c4noc([C@@]5(C)CCCc6sc(N)c(C#N)c65)n4)nc(N4CCCN(C)C[C@@H]4C)n3)[C@@H]2C1 [Ia-101] | 933 nM | 44 nM |  | 
21 | C=CC(=O)N1CCN(c2cc(-c3ccncc3)nc(-c3noc(C4(C)CCCc5sc(N)c(C#N)c54)n3)c2)CC1 (stereo not shown) [Ia-33] |  | 442 nM | 50.4 nM | 
22 | C=CC(=O)NCC1CN(c2cc(-c3noc(C4(C)CCCc5sc(N)c(C#N)c54)n3)nc(N3CCN(C)CC3)c2)C1 (stereo not shown) [Ia-109] |  | 943 nM | 5990 nM | 
23 | C=CC(=O)N1CC[C@H](Oc2cc(-c3noc(C4(C)CCCc5sc(N)c(C#N)c54)n3)nc(N3CCN(C)CC3)c2)C1 (stereo partly shown) [Ia-117] |  | 468 nM | 120 nM | 

More lines, now with the values ahead:

Row | GI50 [1] | IC50 ([2]; Table 36) | IC50 [3] | IC50 ([2]; Table 35) | SMILES
24 | 37.4 nM | 7 nM | 16.6 nM |  | C=CC(=O)N1CCN(c2cc(-c3noc([C@@]4(C)CCCc5sc(N)c(C#N)c54)n3)nc(N3CCCN(CCOC)C[C@@H]3C)c2)CC1 [Ia-130]
25 |  | 182 nM | 19.8 nM |  | C=CC(=O)N1CCN(c2cc(-c3noc(C4(C)CCCc5sc(N)c(C#N)c54)n3)nc(N3CCN(C)CC3)c2)CC1C (stereo not shown) [Ia-108]
26 |  | 255 nM | 35.6 nM |  | C=CC(=O)N1CCN(c2cc(-c3noc(C4(C)CCCc5sc(N)c(C#N)c54)n3)cc(N3CCC(N4CCOCC4)CC3)c2)CC1 (stereo not shown) [Ia-32]
27 |  | 50 nM | 9.9 nM |  | C=CC(=O)N1CCN(c2cc(-c3noc(C4(C)CCCc5sc(N)c(C#N)c54)n3)nc(N3CCN(CC4CC4)CC3)c2)CC1 (stereo not shown) [Ia-121]
28 |  | 254 nM | 38.5 nM |  | C=CC(=O)N1CCN(c2cc(-c3noc(C4(C)CCC(C)c5sc(N)c(C#N)c54)n3)nc(N3CCN(C4CCCC4)CC3)c2)CC1 (stereo not shown) [Ia-10]
29 |  | 260 nM | 29.4 nM |  | C=CC(=O)N1CCN(c2cc(-c3noc(C4(C)CCCc5sc(N)c(C#N)c54)n3)nc(N3CCN(C4CC4)CC3)c2)CC1 (stereo not shown) [Ia-17]
30 |  | 48 nM | 7.8 nM |  | C=CC(=O)N1CCN(c2cc(-c3noc(C4(C)CCCc5sc(N)c(C#N)c54)n3)nc(N3CCC(N4CCOCC4)CC3)c2)CC1 (stereo not shown) [Ia-29]
31 |  | 71 nM | 19.3 nM |  | C=CC(=O)N1CCN(c2cc(-c3noc(C4(C)CCCc5sc(N)c(C#N)c54)n3)nc(N3CCN(C4CCCC4)CC3)c2)CC1 (stereo not shown) [Ia-122]
32 | 2.5 nM | 1.5 nM |  |  | C=CC(=O)N1CCN(c2cc(-c3noc([C@@]4(C)CCCc5sc(N)c(C#N)c54)n3)nc(N3CCCN([C@H]4CCOC4)C[C@@H]3C)n2)CC1 [Ia-44]
33 |  | 31 nM | 11.6 nM |  | C=CC(=O)N1CCN(c2cc(-c3noc(C4(C)CCCc5sc(N)c(C#N)c54)n3)nc(N3CCN4CCC[C@@H]4C3)c2)CC1 (stereo partly shown) [Ia-153]
34 |  | 47 nM | 8.6 nM |  | C=CC(=O)N1CCN(c2cc(-c3noc(C4(C)CCCc5sc(N)c(C#N)c54)n3)nc(N3CCN4CCCCC4C3)c2)CC1 (stereo not shown) [Ia-149]
35 |  | 21 nM | 7.5 nM |  | C=CC(=O)N1CCN(c2cc(OC3CCN(C)CC3)nc(-c3noc(C4(C)CCCc5sc(N)c(C#N)c54)n3)c2)CC1 (stereo not shown) [Ia-118]
36 |  | 39 nM | 9.5 nM |  | C=CC(=O)N1CCN(c2cc(-c3noc(C4(C)CCCc5sc(N)c(C#N)c54)n3)nc(N3CCN(CC)CC3)c2)CC1 (stereo not shown) [Ia-123]
37 |  | 158 nM | 76.6 nM |  | C=CC(=O)N1CCCN(c2cc(-c3noc(C4(C)CCCc5sc(N)c(C#N)c54)n3)nc(N3CCN(C)CC3)c2)CC1 (stereo not shown) [Ia-124]
38 |  | 43 nM | 5.9 nM |  | C=CC(=O)N1CCN(c2cc(-c3noc(C4(C)CCCc5sc(N)c(C#N)c54)n3)nc(N3CCN(CC)C(C)C3)c2)CC1 (stereo not shown) [Ia-152]
39 |  | 216 nM | 54.6 nM |  | C=CC(=O)N1C[C@@H]2CN(c3cc(-c4noc(C5(C)CCCc6sc(N)c(C#N)c65)n4)nc(N4CCN(C5CCCC5)CC4)c3)[C@@H]2C1 (stereo partly shown) [Ia-9]
40 |  | 51 nM | 7.4 nM |  | C=CC(=O)N1CCN(c2cc(-c3noc(C4(C)CCCc5sc(N)c(C#N)c54)n3)nc(N3C[C@@H](C)N(CC)[C@@H](C)C3)c2)CC1 (stereo partly shown) [Ia-21]
41 |  | 24 nM | 12.2 nM |  | C=CC(=O)N1CCN(c2cc(-c3noc(C4(C)CCCc5sc(N)c(C#N)c54)n3)nc(N3CCC(N4CCCC4)CC3)c2)CC1 (stereo not shown) [Ia-36]
42 |  | 40 nM | 6.7 nM |  | C=CC(=O)N1CCN(c2cc(-c3noc(C4(C)CCCc5sc(N)c(C#N)c54)n3)nc(N3CCC(N4CCCCC4)C3)c2)CC1 (stereo not shown) [Ia-22]
